{
  "source": "patent US20260137773A1",
  "about": "(priority 2022, published 2026)",
  "molecules": {"B1": {"name": "miniFH (protein)", "chain": "EDCNELPPRRNTEILTGSWSDQTYPEGTQAIYKCRPGYRSLGNVIMVCRKGEWVALNPLRKCQKRPCGHPGDTPFGTFTLTGGNVFEYGVKAVYTCNEGYQLLGEINYRECDTDGWTNDIPICEVVKCLPVTAPENGKIVSSAMEPDREYHFGQAVRFVCNSGYKIEGDEEMHCSDDGFWSKEKPKCVEISCKSPDVINGSPISQKIIYKENERFQYKCNMGYEYSERGDAVCTESGWRPLPSCEEKSCDNPYIPNGDYSPLRIKHRTGDEITYQCRNGFYPATRGNTAKCTSTGWIPAPRCTSGSGGGGVDTTSCVNPPTVQNAYIVSRQMSKYPSGERVRYQCRSPYEMFGDEEVMCLNGNWTEPPQCKDSTGKCGPPPPIDNGDITSFPLSVYAPASSVEYQCQNLYQLEGNKRITCRNGQWSEPPKCLHPCVISREIMENYNIALRWTAKQKLYSRTGESVEFVCKRGYRLSSRSHTLRTTCWDGKLEYPTCAKR", "modifications": "REGION 1..499: note = miniFH POLYPEPTIDE"}},
  "key": {"[1]": {"details": "healthy volunteers; cited from earlier work"}, "[2]": {"tested_on": "4T1 mouse mammary gland carcinoma", "format": "in vivo", "details": "data not shown"}, "complement activation": {"tested_on": "complement activation", "details": "higher than Factor H; cited from earlier work"}},
  "data": [
    {"molecule": "CC[C@H](C(=O)N1CCCC[C@H]1C(=O)O[C@H](CCc1ccc(OC)c(OC)c1)c1cccc(OCC(=O)NCCNC(=O)COc2cccc([C@@H](CCc3ccc(OC)c(OC)c3)OC(=O)[C@@H]3CCCCN3C(=O)[C@@H](CC)c3cc(OC)c(OC)c(OC)c3)c2)c1)c1cc(OC)c(OC)c(OC)c1", "note": "[AP1903]", "values": [
      {"measurement": "safety", "setting": "[1]", "result": "proven safe"}
    ]},
    {"molecule": "Versikine", "values": [
      {"measurement": "tumor size, Versikine assessed alone", "setting": "[2]", "result": "did not significantly reduced tumor size"}
    ]},
    {"molecule": "B1", "values": [
      {"measurement": "ex vivo potency to inhibit complement activation compared with FH", "setting": "complement activation", "result": "~10", "unit": "fold"}
    ]}
  ]
}
